In patent publication US4568693A, “N-Naphthoylglycine derivatives” (Ayerst, McKenna & Harrison, Inc., priority 1981, dated 1986):

Columns and labels:
aldose reductase [1] = conditions: literature; cited from earlier work
aldose reductase [2] = target: T1, aldose reductase (Bos taurus, UniProt P16116); test: in vitro aldose reductase inhibition (modified Hayman and Kinoshita procedure); format: biochemical, bovine; conditions: for inhibition at 10 µM: 10^-5 molar, read-out: % Inhibition at Different Molar Concentration (in vitro), 10^-5; for inhibition at 1 µM: 10^-6 molar, read-out: % Inhibition at Different Molar Concentration (in vitro), 10^-6; for inhibition at 0.1 µM: 10^-7 molar, read-out: % Inhibition at Different Molar Concentration (in vitro), 10^-7
T1 construct: the preparation of the enzyme from bovine lens; from tissue; host or cells: bovine lens
Description: In the present case the procedure of Hayman and Kinoshita is modified in that the final chromatography step is omitted in the preparation of the enzyme from bovine lens.

[3] = tested on: accumulation of dulcitol in the lenses; test: galactosemic rats, dulcitol accumulation in the lens; format: in vivo, rat (Sprague-Dawley); conditions: 4 days, vs untreated galactosemic rats
Description: The aldose reductase inhibiting property of the compounds of this invention and the utilization of the compounds in preventing, diminishing and alleviating diabetic complications are demonstrable in experiments using galactosemic rats, see Dvornik et al., cited above. Such experiments are exemplified hereinbelow after the listing of the following general comments pertaining to these experiments:
(a) Four or more groups of six male rats, 50-70 g, Sprague-Dawley strain, were used. The first group, the control group, was fed a mixture of laboratory chow (rodent laboratory chow, Purina) and glucose at 20% (w/w %) concentration. The untreated galactosemic group was fed a similar diet in which galactose is substituted for glucose. The third group was fed a diet prepared by mixing a given amount of the test compound with the galactose containing diet. The concentration of galactose in the diet of the treated groups was the same as that for the untreated galactosemic group.
(b) After four days, the animals were killed by decapitation. The eyeballs were removed and punctured with a razor blade; the freed lenses were rolled gently on filter paper and weighed. The sciatic nerves were dissected as completely as possible and weighed. Both tissues were frozen and can be kept up to two weeks before being analyzed for dulcitol.
(c) The polyol determination was performed by a modification of the procedure of M. Kraml and L. Cosyns, Clin. Biochem., 2, 373 (1969). Only two minor reagent changes were made: (a) The rinsing mixture was an aqueous 5% (w/v) trichloroacetic acid solution and (b) the stock solution was prepared by dissolving 25 mg of dulcitol in 100 ml of an aqueous trichloroacetic acid solution. [N.B.: For each experiment the average value found in the tissue from rats fed the glucose diet was subtracted from the individual values found in the corresponding rat tissue to obtain the amount of polyol accumulated].
The figures under L and N represent the percentage decrease of dulcitol accumulation in the tissues of the lens and sciatic nerve, respectively, for treated rats as compared to untreated rats.

inhibition at 10 µM (aldose reductase [2]) [%]	inhibition at 1 µM (aldose reductase [2]) [%]	inhibition at 0.1 µM (aldose reductase [2]) [%]	Compound	further results
			O=C(O)CN1C(=O)c2cccc3cccc(c23)C1=O [1,3-Dioxo-1H-benz[de]isoquinoline-2(3H)-acetic acid]	inhibition of aldose reductase (result in words) (aldose reductase [1]): effective inhibitor of aldose reductase
91	83	40	CN(CC(=O)O)C(=S)c1cccc2c(Cl)cccc12 [Example 40, N-[(5-chloro-1-naphthalenyl)thioxomethyl]-N-methylglycine]	percentage decrease of dulcitol accumulation, lens (L) ([3]; 156 mg/kg/day in diet): 34%
99	91	72	COc1ccc2c(C(=S)N(C)CC(=O)O)cccc2c1Br [Example 41, N-[(5-bromo-6-methoxy-1-naphthalenyl)thioxomethyl]-N-methylglycine]	percentage decrease of dulcitol accumulation, lens (L) ([3]; 162 mg/kg/day in diet): 34%
85	78	33	COc1c(Cl)cc(C(=S)N(C)CC(=O)O)c2ccccc12 [Example 45, N-[(3-chloro-4-methoxy-1-naphthalenyl)thioxomethyl]-N-methylglycine]	percentage decrease of dulcitol accumulation, lens (L) ([3]; 163 mg/kg/day in diet): 15%
88	75	29	CN(CC(=O)O)C(=S)c1cccc2c(Cl)cc(Cl)cc12 [Example 46, N-[(5,7-dichloro-1-naphthalenyl)thioxomethyl]-N-methylglycine]	percentage decrease of dulcitol accumulation, lens (L) ([3]; 52 mg/kg/day in diet): 29%
93	84	33	CN(CC(=O)O)C(=S)c1cccc2c(C(F)(F)F)cccc12 [Example 53b, N-[[(5-trifluoromethyl)-1-naphthalenyl]thioxomethyl]-N-methylglycine]	percentage decrease of dulcitol accumulation, lens (L) ([3]; 11 mg/kg/day in diet): 2%
			O=C1NC(=O)[C@@]2(CCOc3ccc(F)cc32)N1 [sorbinil, (S)-6-Fluoro-2,3-dihydrospiro(4H-1-benzopyran-4,4'-imidazolidine)-2',5'-dione]	inhibition of aldose reductase (result in words) (aldose reductase [1]): aldose reductase inhibiting properties
